According to patent US6737383B1, “Herbicidal oxadiazolidines” (priority 1999, dated 2004):

Assays:
wild oat = experiment: Test B pre/postemergence wild oat; assay type: in vivo, Avena fatua
Outline: (§1)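 Herbicidal effect was estimated by eye on a ten-point control scale after plants spent twelve to sixteen days in a greenhouse following soil or foliar treatment. Foliar sprays targeted plants at one to four leaves; all doses were formulated in a non-phytotoxic solvent with surfactant.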

velvetleaf = experiment: Test B pre/postemergence velvetleaf; assay type: in vivo, Abutilon theophrasti
Description: (§2) Seeds of bedstraw (Galium aparine), blackgrass (Alopecurus myosuroides), surinam grass (Brachiaria decumbens), cocklebur (Xanthium strumarium), corn (Zea mays), crabgrass (Digitaria sanguinalis), giant foxtail (Setaria faberii), morningglory (Ipomoea hederacea), pigweed (Amaranthus retroflexus), rape (Brassica napus), soybean (Glycine max), sugar beet (Beta vulgaris), velvetleaf (Abutilon theophrasti), wheat (Triticum aestivum), wild oat (Avena fatua) and purple nutsedge (Cyperus rotundus) tubers were planted and treated preemnergence with test chemicals formulated in a non-phytotoxic solvent mixture which included a surfactant.
(§3) At the same time, these crop and weed species were also treated with postemergence applications of test chemicals formulated in the same manner. Plants ranged in height from 2 to 18 cm (1- to 4-leaf stage) for postemergence treatments. Plant species in the flood test consisted of rice (Oryza sativa), smallflower flatsedge (Cyperus difformis), duck salad (Heteranthera limosa) and bamyardgrass (Echinochloa crus-galli) grown to the 2-leaf stage for testing. Treated plants and controls were maintained in a greenhouse for twelve to sixteen days, after which all species were compared to controls and visually evaluated. Plant response ratings, summarized in Table B, are based on a scale of 0 to 10 where 0 is no effect and 10 is complete control. A dash (−) response means no test result.

cocklebur = experiment: Test B pre/postemergence cocklebur; assay type: in vivo, Xanthium strumarium
Description: as §2, §3

rape = experiment: Test B pre/postemergence rape; assay type: in vivo, Brassica napus
Outline: as §1

surinam grass = experiment: Test B pre/postemergence surinam grass; assay type: in vivo, Brachiaria decumbens
Outline: as §1

giant foxtail = experiment: Test B pre/postemergence giant foxtail; assay type: in vivo, Setaria faberii
Outline: as §1

soybean = experiment: Test B pre/postemergence soybean; assay type: in vivo, Glycine max
Description: as §2, §3

blackgrass = experiment: Test B pre/postemergence blackgrass; assay type: in vivo, Alopecurus myosuroides
Description: as §2, §3

crabgrass = experiment: Test B pre/postemergence crabgrass; assay type: in vivo, Digitaria sanguinalis
Outline: as §1

sugar beet = experiment: Test B pre/postemergence sugar beet; assay type: in vivo, Beta vulgaris
Outline: as §1

morningglory = experiment: Test B pre/postemergence morningglory; assay type: in vivo, Ipomoea hederacea
Outline: as §1

pigweed = experiment: Test B pre/postemergence pigweed; assay type: in vivo, Amaranthus retroflexus
Outline: as §1

bedstraw = experiment: Test B pre/postemergence bedstraw; assay type: in vivo, Galium aparine
Outline: as §1

purple nutsedge = experiment: Test B pre/postemergence purple nutsedge; assay type: in vivo, Cyperus rotundus
Outline: as §1

wheat = experiment: Test B pre/postemergence wheat; assay type: in vivo, Triticum aestivum
Outline: as §1

corn = experiment: Test B pre/postemergence corn; assay type: in vivo, Zea mays
Outline: as §1

[1] = Postemergence, Rate 62 g/ha, scale 0 to 10, 0 is no effect, 10 is complete control
[2] = Postemergence, Rate 125 g/ha, scale of 0 to 10 where 0 is no effect and 10 is complete control
[3] = Preemergence, Rate 62 g/ha, scale of 0 to 10 where 0 is no effect and 10 is complete control
[4] = Preemergence, Rate 125 g/ha, scale of 0 to 10 where 0 is no effect and 10 is complete control
[5] = Preemergence, Rate 250 g/ha, scale 0 (no effect) to 10 (complete control)
[6] = Rate 250 g/ha, Postemergence, scale 0 to 10, 0 is no effect, 10 is complete control
[7] = Rate 500 g/ha, Postemergence, scale 0 to 10, 0 is no effect, 10 is complete control
[8] = Preemergence, Rate 500 g/ha, scale of 0 to 10 where 0 is no effect and 10 is complete control

SMILES: CC(C)N(C(=O)n1oc(=O)n(CC(F)F)c1=O)c1ccc(F)cc1F [Compound 711]
- Plant response rating, Wild oats (wild oat; [1]): 0
- Wild oats plant response rating (wild oat; [2]): 0
- Wild oats plant response rating (wild oat; [3]): 7
- Plant response rating, Wild oats (wild oat; [4]): 7
- Wild oats plant response rating (wild oat; [5]): 9
- Wild oats plant response rating (wild oat; [6]): 2
- Wild oats plant response rating (wild oat; [7]): 4
- Plant response rating, Velvetleaf (velvetleaf; [1]): 3
- Velvetleaf plant response rating (velvetleaf; [2]): 5
- Velvetleaf plant response rating (velvetleaf; [3]): 4
- Plant response rating, Velvetleaf (velvetleaf; [4]): 6
- Velvetleaf plant response rating (velvetleaf; [5]): 6
- Velvetleaf plant response rating (velvetleaf; [6]): 6
- Velvetleaf plant response rating (velvetleaf; [7]): 6
- Plant response rating, Cocklebur (cocklebur; [1]): 1
- Cocklebur plant response rating (cocklebur; [2]): 1
- Cocklebur plant response rating (cocklebur; [3]): 0
- Plant response rating, Cocklebur (cocklebur; [4]): 0
- Cocklebur plant response rating (cocklebur; [5]): 0
- Plant response rating, Cocklebur (cocklebur; [8]): 0
- Cocklebur plant response rating (cocklebur; [6]): 2
- Cocklebur plant response rating (cocklebur; [7]): 7
- Plant response rating, Rape (rape; [1]): 0
- Rape plant response rating (rape; [2]): 0
- Rape plant response rating (rape; [3]): 1
- Plant response rating, Rape (rape; [4]): 6
- Rape plant response rating (rape; [5]): 7
- Rape plant response rating (rape; [6]): 2
- Rape plant response rating (rape; [7]): 4
- Plant response rating, B. signalgrass (surinam grass; [1]): 4
- B. signalgrass plant response rating (surinam grass; [2]): 6
- B. signalgrass plant response rating (surinam grass; [3]): 2
- Plant response rating, B. signalgrass (surinam grass; [4]): 2
- B. signalgrass plant response rating (surinam grass; [5]): 7
- Plant response rating, B. signalgrass (surinam grass; [8]): 8
- B. signalgrass plant response rating (surinam grass; [6]): 6
- B. signalgrass plant response rating (surinam grass; [7]): 8
- Plant response rating, Giant foxtail (giant foxtail; [1]): 6
- Giant foxtail plant response rating (giant foxtail; [2]): 8
- Giant foxtail plant response rating (giant foxtail; [3]): 10
- Plant response rating, Giant foxtail (giant foxtail; [4]): 10
- Giant foxtail plant response rating (giant foxtail; [5]): 10
- Giant foxtail plant response rating (giant foxtail; [6]): 9
- Giant foxtail plant response rating (giant foxtail; [7]): 9
- Plant response rating, Soybean (soybean; [1]): 1
- Soybean plant response rating (soybean; [2]): 4
- Soybean plant response rating (soybean; [3]): 0
- Plant response rating, Soybean (soybean; [4]): 0
- Soybean plant response rating (soybean; [5]): 0
- Soybean plant response rating (soybean; [6]): 5
- Soybean plant response rating (soybean; [7]): 6
- Plant response rating, Blackgrass (blackgrass; [1]): 3
- Blackgrass plant response rating (blackgrass; [2]): 7
- Blackgrass plant response rating (blackgrass; [3]): 6
- Plant response rating, Blackgrass (blackgrass; [4]): 6
- Blackgrass plant response rating (blackgrass; [5]): 8
- Plant response rating, Blackgrass (blackgrass; [8]): 9
- Blackgrass plant response rating (blackgrass; [6]): 7
- Blackgrass plant response rating (blackgrass; [7]): 7
- Plant response rating, Crabgrass (crabgrass; [1]): 4
- Crabgrass plant response rating (crabgrass; [2]): 8
- Crabgrass plant response rating (crabgrass; [3]): 8
- Plant response rating, Crabgrass (crabgrass; [4]): 9
- Crabgrass plant response rating (crabgrass; [5]): 10
- Crabgrass plant response rating (crabgrass; [6]): 9
- Crabgrass plant response rating (crabgrass; [7]): 10
- Plant response rating, Sugarbeets (sugar beet; [1]): 1
- Sugarbeets plant response rating (sugar beet; [2]): 2
- Sugarbeets plant response rating (sugar beet; [3]): 5
- Plant response rating, Sugarbeets (sugar beet; [4]): 6
- Sugarbeets plant response rating (sugar beet; [5]): 8
- Sugarbeets plant response rating (sugar beet; [6]): 2
- Sugarbeets plant response rating (sugar beet; [7]): 3
- Plant response rating, Morningglory (morningglory; [1]): 2
- Morningglory plant response rating (morningglory; [2]): 2
- Morningglory plant response rating (morningglory; [3]): 0
- Plant response rating, Morningglory (morningglory; [4]): 1
- Morningglory plant response rating (morningglory; [5]): 3
- Morningglory plant response rating (morningglory; [6]): 4
- Morningglory plant response rating (morningglory; [7]): 4
- Plant response rating, Redroot pigweed (pigweed; [1]): 3
- Redroot pigweed plant response rating (pigweed; [2]): 7
- Redroot pigweed plant response rating (pigweed; [3]): 7
- Plant response rating, Redroot pigweed (pigweed; [4]): 7
- Redroot pigweed plant response rating (pigweed; [5]): 9
- Redroot pigweed plant response rating (pigweed; [6]): 9
- Redroot pigweed plant response rating (pigweed; [7]): 10
- Bedstraw plant response rating (bedstraw; [3]): 2
- Plant response rating, Bedstraw (bedstraw; [4]): 3
- Bedstraw plant response rating (bedstraw; [5]): 6
- Plant response rating, Bedstraw (bedstraw; [8]): 7
- Bedstraw plant response rating (bedstraw; [6]): 8
- Plant response rating, Nutsedge (purple nutsedge; [1]): 0
- Nutsedge plant response rating (purple nutsedge; [2]): 0
- Nutsedge plant response rating (purple nutsedge; [3]): 0
- Nutsedge plant response rating (purple nutsedge; [5]): 0
- Nutsedge plant response rating (purple nutsedge; [6]): 3
- Nutsedge plant response rating (purple nutsedge; [7]): 5
- Plant response rating, Wheat (wheat; [1]): 0
- Wheat plant response rating (wheat; [2]): 0
- Wheat plant response rating (wheat; [3]): 2
- Plant response rating, Wheat (wheat; [4]): 6
- Wheat plant response rating (wheat; [5]): 8
- Wheat plant response rating (wheat; [6]): 3
- Wheat plant response rating (wheat; [7]): 5
- Plant response rating, Corn (corn; [1]): 0
- Corn plant response rating (corn; [2]): 0
- Corn plant response rating (corn; [3]): 0
- Plant response rating, Corn (corn; [4]): 0
- Corn plant response rating (corn; [5]): 0
- Corn plant response rating (corn; [6]): 0
- Corn plant response rating (corn; [7]): 4
